Data set [1] relates to MDR Ecoli and non-MDR Ecoli isolates. Description: MIC90 of antimicrobial agents. It counts as cell-based.
Data set [2] can be described thus: density and max drug loading of antimicrobial agents considered for carrier particles. It counts as physicochemical. To be noted: Table 7.
Data set [3] is described as follows: anti-bacterial properties of SSD degradation products. The conditions noted are these: compared with SSD before degradation in the bladder. The source says: These degradation products include, for example, sulfanilic acid; sulfanilamide; sulfaguanidine, the guanidine derivative of sulfanilamide; and […].
The nature of the next data set: density of materials. It counts as physicochemical. The conditions noted are these: Table 4.
For data set [4] the following is noted: cited from earlier work.
Setting [5] is: tested against non-MDR Ecoli isolates only.
The mark [6] stands for this setting: agents marked *: tested against both MDR Ecoli and non-MDR Ecoli isolates.
[7] abbreviates: agents marked *: tested against both MDR Ecoli and non-MDR Ecoli isolates, read-out: MIC90.
Where [8] appears, read: tested against non-MDR Ecoli isolates only, read-out: MIC90.

In brackets after ≈: the same amount, converted by molar mass. Where two headings read alike, the source gives them in different places.

In the case of Piperacillin-tazobactam, in data set [1] (setting [5]), the MIC90 was found to be 4 ppm. The Density in data set [2] turned out to be 1.5 g/mL. As for Cefoperazone-tazobacatam, the MIC90 in data set [1] (setting [6]) is 0.5 ppm. Moreover, the Density in data set [2] amounted to 1.5 g/mL. As for Polymxin B, the MIC90 in data set [1] (setting [6]) came to 1 ppm.

Take `Nc1ccccn1` [2-aminopyridine]: the anti-bacterial properties entry in data set [3] is recorded as “comparable to the original compound”. With `[H]/N=C(/N)NS(=O)(=O)c1ccc(N)cc1` [sulfaguanidine], in data set [3], the anti-bacterial properties result is recorded as “comparable to the original compound”. Consider `C[C@@H](O)[C@H]1C(=O)N2C(C(=O)O)=C(S[C@@H]3CN[C@H](C(=O)Nc4cccc(C(=O)O)c4)C3)[C@H](C)[C@H]12` [Ertapenem], for which the MIC90 in data set [1] (setting [7]) came out at 0.03 µg/mL (≈ 0.0631 µM). In data set [2], this compound returned a Density of 1.6 g/mL. As to `Nc1ccc(S(=O)(=O)O)cc1` [sulfanilic acid], the anti-bacterial properties entry in data set [3] is “comparable to the original compound”.

`CCCCCCCCCCCCCCCC(=O)OCC(COC(=O)CCCCCCCCCCCCCCC)OC(=O)CCCCCCCCCCCCCCC` [Glyceryl tripalmitate] returned a Density in “density of materials” of 0.8752 g/mL. In the case of `CC(C)(O/N=C(\C(=O)N[C@@H]1C(=O)N2C(C(=O)[O-])=C(C[n+]3ccccc3)CS[C@H]12)c1csc(N)n1)C(=O)O` [Ceftazidime], the MIC90 in data set [1] (setting [8]) is 8 µg/mL (≈ 14.6 µM). In addition, the Density in data set [2] was 1.6 g/mL. The like results for `C[C@@H](O)[C@H]1C(=O)N2C(C(=O)O)=C(S[C@@H]3CN[C@H](C(=O)N(C)C)C3)[C@H](C)[C@H]12` [Meropenem] were, in that order, at most 0.06 µg/mL and 1.4 g/mL. `NCC[C@H](O)C(=O)N[C@@H]1C[C@H](N)[C@@H](O[C@H]2O[C@H](CN)[C@@H](O)[C@H](O)[C@H]2O)[C@H](O)[C@H]1O[C@H]1O[C@H](CO)[C@@H](O)[C@H](N)[C@H]1O` [Amikacin]: the MIC90 in data set [1] (setting [7]) came out at 4 µg/mL (≈ 6.83 µM). In addition, in data set [4], the solubility in water is 50 mg/mL (≈ 85400 µM). The Density in data set [2] worked out at 1.6 g/mL. In data set [1] (setting [6]), Cefoperazone-avibactam had an MIC90 of 0.25 ppm. For the same compound, the Density in data set [2] was found to be 1.5 g/mL. The compound Cefoperazone-sulbactam came in with an MIC90 in data set [1] (setting [5]) of 4 ppm.

For the compound `C[C@@H](O)[C@H]1C(=O)N2C(C(=O)O)=C(SCCN=CN)C[C@H]12` [Imipenem], the MIC90 in data set [1] (setting [7]) was at most 0.12 µg/mL.

For the compound `CN(C)c1cc(NC(=O)CNC(C)(C)C)c(O)c2c1C[C@H]1C[C@H]3[C@H](N(C)C)C(O)=C(C(N)=O)C(=O)[C@@]3(O)C(O)=C1C2=O` [Tigecycline], the MIC90 in data set [1] stood at 0.25 µg/mL (≈ 0.427 µM). In data set [2], this compound showed a Density of 1.5 g/mL.

As to `CCCCCCCCCCCCCC(=O)OCC(COC(=O)CCCCCCCCCCCCC)OC(=O)CCCCCCCCCCCCC` [Glyceryl trimyristate], the Density in “density of materials” is 0.885 g/mL.

On to `CO[C@@]1(NC(=O)Cc2cccs2)C(=O)N2C(C(=O)O)=C(COC(N)=O)CS[C@@H]21` [Cefoxitin], for which the MIC90 in data set [1] (setting [8]) is 16 µg/mL (≈ 37.4 µM). Further, in data set [2], the Density worked out at 1.6 g/mL. The like results for `CO/N=C(\C(=O)N[C@@H]1C(=O)N2C(C(=O)[O-])=C(C[N+]3(C)CCCC3)CS[C@H]12)c1csc(N)n1` [Cefepime] were, in that order, 8 µg/mL (≈ 16.6 µM) and 1.6 g/mL. The compound `CCCCCCCCCCCCCCCCCCO` [Stearyl alcohol] had a Density in “density of materials” of 0.812 g/mL. For the compound `C[C@@H](O)[C@H]1C(=O)N2C(C(=O)O)=C(S[C@@H]3CN[C@H](CNS(N)(=O)=O)C3)[C@H](C)[C@H]12` [Doripenem], the MIC90 in data set [1] (setting [8]) was at most 0.12 µg/mL. For the compound `Nc1ccc(S(N)(=O)=O)cc1` [sulfanilamide], the anti-bacterial properties entry in data set [3] is reported as “comparable to the original compound”. In the case of Colistin, in data set [1] (setting [6]), the MIC90 is given as at most 0.5 ppm. Compound `CCCCCCCCCCCCCCCCCC(=O)OCC(COC(=O)CCCCCCCCCCCCCCCCC)OC(=O)CCCCCCCCCCCCCCCCC` [Glyceryl tristearate] gave a Density in “density of materials” of 0.862 g/mL.

As for `C[C@H]1[C@H](NC(=O)/C(=N\OC(C)(C)C(=O)O)c2csc(N)n2)C(=O)N1S(=O)(=O)O` [Aztreoman], the MIC90 in data set [1] (setting [8]) was found to be 16 µg/mL (≈ 36.7 µM). For the same compound, in data set [2], the Density was 1.83 g/mL. The like results for `NC[C@H]1O[C@H](O[C@H]2[C@H](O)[C@@H](O[C@H]3O[C@H](CO)[C@@H](O)[C@H](N)[C@H]3O)[C@H](N)C[C@@H]2N)[C@H](N)C[C@@H]1O` [Tobramycin] were, in that order, 8 µg/mL (≈ 17.1 µM) and 1.5 g/mL. Consider `CCCCCCCCCCCCCCCCCCCCCC(=O)OCC(O)CO` (centres unmarked) [Glyceryl behenate], for which the Density in “density of materials” came out at 0.942 g/mL. As for `[H]/N=C(\N/C(=N/[H])NCCCCCCNC(=N)NC(=N)Nc1ccc(Cl)cc1)Nc1ccc(Cl)cc1` [Chlorohexidine], the MIC90 in data set [1] (setting [8]) worked out at 3 µg/mL (≈ 5.94 µM). The compound further showed a Density in data set [2] of 1.06 g/mL.

The values are drawn from patent US20250275988A1, “FORMULATION FOR TREATING URINARY SYSTEM DISORDERS” (WATERSHED MEDICAL, INC., priority 2022, published 2025).
